Test [1] concerns the target T1, DAT Dopamine Transporter (Rattus norvegicus, UniProt P23977).
T1 construct: male wistar rats (125-250 g) are sacrificed by decapitation and striatum quickly dissected out; from tissue; host or cells: rat striatum, P2 fraction
Description: Measurements of [3H]dopamine uptake into rat cortical synaptosomes. In kind it is biochemical. How it is done:
Measurements of [^3H]Dopamine Uptake Into Rat Cortical Synaptosomes
The tissue is gently homogenised (glass teflon homogeniser) and the P2 fraction is obtained by centrifugation (1000 g, 10 minutes and 40000 g, 20 minutes, 4° C.) and suspended in 560 volumes of a modified Krebs-Ringer-phosphate buffer, pH 7.4.
Tissue 0.25 mg/well (140 μl) (original tissue) is mixed with test suspension. […] Final volume is 0.2 mL. The incubation is terminated by filtering the samples under vacuum through Whatman GF/C filters with a wash of 1×0.2 ml buffer. The filters are dried and appropriate scintillation fluid (Optiphase Supermix) is added. After storage for 2 hours in the dark the content of radioactivity is determined by liquid scintillation counting. Uptake is obtained by subtracting the non-specific binding and passive transport measured in the presence of 100 μM of benztropin. For determination of the inhibition of uptake ten concentrations of drugs covering 6 decades are used.
^3H-DA=3,4-(ring-2,5,6-^3H)dopamine hydrochloride from New England Nuclear, specific activity 30-50 Ci/mmol.

Test [2] addresses NAT Noradrenergic Transporter (Rattus norvegicus, UniProt Q9WTR4). Description: Measurements of [3H]noradrenaline uptake into rat cortical synaptosomes. In kind it is biochemical. How it is done:
Measurements of [^3H]Noradrenaline Uptake Into Rat Cortical Synaptosomes
The homogenate is centrifuged at 1000×g for 10 min at 4° C. The pellet is discarded and the supernatant is centrifuged at 40.000×g for 20 min. […] Pellet is suspended in 140 volumes of assaybuffer. Tissue is mixed with test compounds and after 10 min pre-incubation, 10 nM [^3H]-noradrenaline is added to a final volume of 0.2 ml and the mixture is incubated for 15 min at 37° C. After 15 min incubation, samples are filtered directly on Unifilter GF/C glass fiber filters (soaked for 30 min in 0.1% polyethylenimine) under vacuum and immediately washed with 1×0.2 mL assay buffer. Non-specific uptake is determined using talsupram (10 μM final concentration). Duloxetine is included as reference in all experiments as dose-response curve.

The target in test [3] is T2, 5-HTT Serotonin Transporter (Rattus norvegicus, UniProt P31652).
T2 construct: Whole brains from male Wistar rats (125-225 g), excluding cerebellum, are homogenized; from tissue; host or cells: rat whole brain excluding cerebellum, synaptosomal (P2) pellet
T2 sequence (P31652 whole entry): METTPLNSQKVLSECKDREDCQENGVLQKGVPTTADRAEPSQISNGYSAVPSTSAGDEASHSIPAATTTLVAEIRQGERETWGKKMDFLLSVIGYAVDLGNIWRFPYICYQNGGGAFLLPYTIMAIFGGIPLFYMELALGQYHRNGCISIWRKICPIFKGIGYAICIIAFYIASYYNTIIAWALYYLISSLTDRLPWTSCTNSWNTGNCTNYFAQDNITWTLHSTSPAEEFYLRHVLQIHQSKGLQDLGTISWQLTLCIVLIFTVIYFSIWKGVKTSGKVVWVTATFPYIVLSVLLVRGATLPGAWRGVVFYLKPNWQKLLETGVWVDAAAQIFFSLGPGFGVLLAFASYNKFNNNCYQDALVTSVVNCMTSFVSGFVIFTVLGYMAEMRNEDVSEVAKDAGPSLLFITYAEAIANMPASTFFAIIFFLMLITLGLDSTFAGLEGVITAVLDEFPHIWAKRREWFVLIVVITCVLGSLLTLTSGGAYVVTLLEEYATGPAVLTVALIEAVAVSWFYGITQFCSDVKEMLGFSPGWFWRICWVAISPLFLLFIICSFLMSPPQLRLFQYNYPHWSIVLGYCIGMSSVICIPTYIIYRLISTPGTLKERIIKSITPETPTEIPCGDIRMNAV
The test can be described thus: Measurements of [3H]-5-HT uptake into rat cortical synaptosomes. The format is biochemical. How it is done:
Measurements of [^3H]-5-HT Uptake Into Rat Cortical Synaptosomes
The homogenate is centrifuged at 1000×g for 10 rain at 4° C. The pellet is discarded and the supernatant is centrifuged at 40.000×g for 20 min. The final pellet is homogenized in assay buffer (0.5 mg original tissue/well). Test compounds (or buffer) and 10 nM [^3H]-5-HT are added to 96 well plates. […] The incubation is started by adding tissue to a final assay volume of 0.2 mL. After 15 min incubation with radioligand at 37° C., samples are filtered directly on Unifilter GF/C glass fiber filters (soaked for 30 min in 0.1% polyethylenimine) under vacuum and immediately washed with 1×0.2 ml assay buffer. Non-specific uptake is determined using citalopram (10 μM final concentration). Citalopram is included as reference in all experiments as dose-response curve.

The conditions of test [4]: 24 weeks' treatment, patients, cited from earlier work.

Structures are written as SMILES. Read-outs that look alike come from different tables or passages of the source.

T1 sequence (P23977 whole entry): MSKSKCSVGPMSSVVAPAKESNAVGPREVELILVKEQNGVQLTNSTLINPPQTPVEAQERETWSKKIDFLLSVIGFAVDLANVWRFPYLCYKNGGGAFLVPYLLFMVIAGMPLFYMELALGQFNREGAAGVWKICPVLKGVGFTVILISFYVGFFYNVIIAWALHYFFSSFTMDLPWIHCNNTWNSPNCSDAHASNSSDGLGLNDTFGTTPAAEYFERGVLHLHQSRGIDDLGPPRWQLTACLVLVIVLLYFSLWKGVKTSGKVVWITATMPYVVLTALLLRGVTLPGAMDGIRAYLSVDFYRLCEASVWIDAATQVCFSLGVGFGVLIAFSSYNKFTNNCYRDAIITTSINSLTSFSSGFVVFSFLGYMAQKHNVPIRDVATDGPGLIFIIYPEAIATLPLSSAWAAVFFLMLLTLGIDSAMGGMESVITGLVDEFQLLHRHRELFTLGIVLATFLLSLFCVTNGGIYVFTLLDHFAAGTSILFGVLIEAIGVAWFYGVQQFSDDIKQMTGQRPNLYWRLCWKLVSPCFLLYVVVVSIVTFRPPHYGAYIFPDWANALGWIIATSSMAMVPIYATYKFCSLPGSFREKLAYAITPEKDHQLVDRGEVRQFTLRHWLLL
Chain of NAT Noradrenergic Transporter (Q9WTR4 6-550 limits assumed): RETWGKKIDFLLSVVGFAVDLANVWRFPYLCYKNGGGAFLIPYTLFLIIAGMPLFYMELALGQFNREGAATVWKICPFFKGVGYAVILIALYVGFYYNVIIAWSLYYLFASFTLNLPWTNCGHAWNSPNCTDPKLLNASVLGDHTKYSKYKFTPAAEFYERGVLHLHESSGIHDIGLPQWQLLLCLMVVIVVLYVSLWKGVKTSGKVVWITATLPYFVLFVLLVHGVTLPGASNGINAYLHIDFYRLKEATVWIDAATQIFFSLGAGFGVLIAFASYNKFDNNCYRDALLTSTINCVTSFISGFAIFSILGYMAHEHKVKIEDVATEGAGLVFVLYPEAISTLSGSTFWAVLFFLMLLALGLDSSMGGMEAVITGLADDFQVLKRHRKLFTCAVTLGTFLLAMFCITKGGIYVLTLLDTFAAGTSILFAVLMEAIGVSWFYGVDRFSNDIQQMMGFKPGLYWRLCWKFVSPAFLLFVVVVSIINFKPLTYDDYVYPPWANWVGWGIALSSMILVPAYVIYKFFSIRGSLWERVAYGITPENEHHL

As usually defined, the IC50 is the point on the concentration scale where inhibition reaches its midpoint. A lower IC50 goes with greater potency in that assay. For `CN[C@@H]1C[C@@H](c2c[nH]c3ccccc23)c2ccccc21` [Formula IX], the IC50 in test [1], in test [2] and in test [3] was 0.1 to 200 nM throughout.
For the compound `CN[C@@H]1C[C@@H](c2c[nH]c3ccc(Cl)cc23)c2ccccc21` [Formula VIII], the IC50 in test [1], in test [2] and in test [3] was 0.1 to 200 nM each time.
In the case of `CN[C@H]1C[C@@H](c2c[nH]c3c(F)cccc23)c2ccccc21` [Formula VII], the IC50 in test [1], in test [2] and in test [3] was 0.1 to 200 nM throughout.
`CN[C@@H]1C[C@H](c2c[nH]c3c(F)cccc23)c2ccccc21` [Formula VI]: the IC50 in test [1], in test [2] and in test [3] was 0.1 to 200 nM each time.
Turning to `CN[C@@H]1C[C@@H](c2c[nH]c3cc(OC)ccc23)c2ccccc21` [Formula X], the IC50 in test [1], in test [2] and in test [3] was 0.1 to 200 nM throughout.
Regarding `CCOC[C@@H]1[C@@H](c2ccc(Cl)c(Cl)c2)C[C@@H]2CC[C@H]1N2C` [Tesofensine], the average weight loss in test [4] (0.25 mg) is listed as 6.5%; in test [4] (0.5 mg), 11.2%; in test [4] (1 mg), 12.6%.

The values are drawn from US20090215774A1, “USES OF INDANE COMPOUNDS” (H. LUNDBECK A/S, priority 2008, published 2009).
